Source: ChEMBL document CHEMBL1151666, “Novel Zaragozic Acids from Leptodontidium elatius” (J Nat Prod, 1996)

Legend:
[1] = biological target: T1, Squalene synthase (Homo sapiens, UniProt P37268); experiment: Inhibition of squalene synthase
T1 sequence (P37268 whole entry): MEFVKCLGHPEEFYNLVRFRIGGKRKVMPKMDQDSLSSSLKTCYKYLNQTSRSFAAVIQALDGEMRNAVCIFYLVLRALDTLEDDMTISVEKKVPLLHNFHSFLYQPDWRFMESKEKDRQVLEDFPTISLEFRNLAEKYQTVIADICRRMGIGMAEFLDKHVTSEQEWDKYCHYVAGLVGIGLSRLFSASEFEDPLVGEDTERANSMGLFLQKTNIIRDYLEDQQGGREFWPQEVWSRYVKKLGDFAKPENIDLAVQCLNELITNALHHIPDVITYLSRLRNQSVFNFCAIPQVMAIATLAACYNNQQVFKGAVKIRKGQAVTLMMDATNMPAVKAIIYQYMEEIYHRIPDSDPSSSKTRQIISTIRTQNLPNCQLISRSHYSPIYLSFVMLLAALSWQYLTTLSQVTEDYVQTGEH

[2] = biological target: T2, Squalene synthase (Rattus norvegicus, UniProt Q02769); experiment: Inhibition of rat squalene synthase
T2 sequence (Q02769 whole entry): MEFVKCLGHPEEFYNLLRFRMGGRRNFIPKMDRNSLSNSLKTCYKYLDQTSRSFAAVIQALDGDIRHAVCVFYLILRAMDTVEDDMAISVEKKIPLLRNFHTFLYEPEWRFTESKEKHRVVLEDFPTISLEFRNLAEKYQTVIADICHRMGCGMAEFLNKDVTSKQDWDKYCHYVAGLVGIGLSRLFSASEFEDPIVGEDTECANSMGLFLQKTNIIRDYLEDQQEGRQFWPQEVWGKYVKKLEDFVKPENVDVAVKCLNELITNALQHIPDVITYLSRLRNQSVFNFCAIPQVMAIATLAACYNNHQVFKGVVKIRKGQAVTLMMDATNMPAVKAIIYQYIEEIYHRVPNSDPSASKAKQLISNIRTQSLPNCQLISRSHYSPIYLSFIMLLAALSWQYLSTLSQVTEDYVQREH

SMILES | IC50 [1] [nM] | Ki [2] [nM]
C[C@H](/C=C/CCC(=O)O[C@@H]1[C@@H](O)[C@@]2(CC/C=C/[C@H](C)CCCc3ccccc3)O[C@H](C(=O)O)[C@@](O)(C(=O)O)[C@]1(C(=O)O)O2)CCCc1ccccc1 [ZARAGOZIC ACID E] | 4 | –
CCCCCCC[C@@H](CCC[C@]12O[C@H](C(=O)O)[C@@](O)(C(=O)O)[C@](C(=O)O)(O1)[C@H](OC(=O)CC/C=C/[C@@H](C)CCCc1ccccc1)[C@H]2O)OC(C)=O [ZARAGOZIC ACID F] | 2 | –
CC(=O)O[C@H](CCC[C@]12O[C@H](C(=O)O)[C@@](O)(C(=O)O)[C@](C(=O)O)(O1)[C@H](OC(=O)CC/C=C/[C@H](C)CCCc1ccccc1)[C@H]2O)[C@H](C)Cc1ccccc1 [ZARAGOZIC ACID C] | 0.3 | 0.045
C[C@@H](CCCC[C@]12O[C@H](C(=O)O)[C@@](O)(C(=O)O)[C@](C(=O)O)(O1)[C@H](OC(=O)CC/C=C/[C@@H](C)CCCc1ccccc1)[C@H]2O)Cc1ccccc1 | 0.2 | –
